Publication PMC8508980, “Design, Synthesis and Anticancer Profile of New 4-(1H-benzo[d]imidazol-1-yl)pyrimidin-2-amine-Linked Sulfonamide Derivatives with V600EBRAF Inhibitory Effect” (International Journal of Molecular Sciences, 2021)

Tests used:
[1] = system: T-47D cells; assay: MTT assay IC50 over T-47D; assay type: cell-based; details: Homo sapiens, T47D
Description: (§1) In the beginning, the IC50 of compound 12e over T-47D (American Type Culture Collection, US) was determined using MTT assay, and the same procedure was applied for A375 and SK-MEL-5. T-47D cells (10^5 cells) were treated with 12e (5 µM) and incubated for 48h. Cells were collected by trypsinization, washed two times with ice-cold PBS, and re-suspended in 60% cold ethanol and kept at 4 °C for 60 min. PBS was used to wash the fixed cells and was re-suspended in 1.0 mL of PBS containing 10µg/mL propidium iodide and 50 µg/mL RNAase A. Cells were incubated in the dark at 37 °C for 20min; then, DNA contents were analyzed using flow cytometric analysis using an FL2 (λex/em 535/617 nm) signal detector. For each sample, 12,000 events were acquired. The cell cycle distribution was obtained by using ACEA NovoExpress^TM software.

[2] = system: melanoma cancer cell lines; assay: NCI 60 screen, sub-panel mean; assay type: cell-based, human; details: NCI-60, melanoma sub-panel
Description: (§2) Anticancer profiling over a panel of 60 cancer cell lines was carried out at the National Cancer Institute (NCI), Bethesda, Maryland, USA, https://dtp.cancer.gov/discovery_development/nci-60/methodology.htm (Last visit 22 September 2021), using the standard procedure (detailed procedure is located in the Supplementary Information page 50 s).
(§3) NCI standard procedure for 60 cell lines assay
(§4) The human tumor cell lines of the cancer screening panel are grown in RPMI 1640 mediu m containing 5% fetal bovine serum and 2 mM L-glutamine. For a typical screening experiment, cells are inoculated into 96 well microtiter plates in 100 μL at plating densities ranging from 5,000 to 40,000 cells/well depending on the doubling time of individual cell lines. After cell inoculation, the microtiter plates are incubated at 37° C, 5 % CO2, 95 % air and 100 % relative humidity for 24 h prior to addition of experimental drugs.
(§5) After 24 h, two plates of each cell line are fixed in situ with TCA, to represent a measurement of the cell population for each cell line at the time of drug addition (Tz). Experimental drugs are solubilized in dimethyl sulfoxide at 400-fold the desired final maximum test concentration (10 µM) and stored frozen prior to use. At the time of drug addition, an aliquot of frozen concentrate is thawed and diluted to twice the desired final maximum test concentration with co mp lete medium containing 50 μg/ml gentamicin. Additional four, 10-fold or ½ log serial dilutions are made to provide a total of five drug concentrations plus control. Aliquots of 100 μl of these different drug dilutions are added to the appropriate microtiter wells already containing 100 μl of medium, resulting in the required final drug concentrations.
(§6) Following drug addition, the plates are incubated for an additional 48 h at 37°C, 5 % CO2, 95 % air, and 100 % relative humidity. For adherent cells, the assay is terminated by the addition of cold TCA. Cells are fixed in situ by the gentle addition of 50 μl of cold 50 % (w/v) TCA (final concentration, 10 % TCA) and incubated for 60 minutes at 4°C. The supernatant is discarded, and the plates are washed five times with tap water and air dried. Sulforhodamine B (SRB) solution (100 μl) at 0.4 % (w/v) in 1 % acetic acid is added to each well, and plates are incubated for 10 minutes at room temperature. After staining, unbound dye is removed by washing five times with 1 % acetic acid and the plates are air dried. Bound stain is subsequently solubilized with 10 mM trizma base, and the absorbance is read on an automated plate reader at a wavelength of 515 nm. For suspension cells, the methodology is the same except that the assay is terminated by fixing settled cells at the bottom of the wells by g ently adding 50 μl of 80 % TCA (final concentration, 16 % TCA). Using the seven absorbance measurements [time zero, (Tz), control growth, (C), and test growth in the presence of drug at the five concentration levels (Ti)], the percentage growth is calculated at each of the drug concentrations levels. Percentage growth inhibition is calculated as:
(§7) [(Ti-Tz)/(C-Tz)] x 100 for concentrations for which Ti>/=Tz
(§8) [(Ti-Tz)/Tz] x 100 for concentrations for which Ti<Tz.
(§9) Three dose response parameters are calculated for each experimental agent. Growth inhibition of […]
(§10) resulting in a 50% reduction in the net protein increase (as measured by SRB staining) in control cells during the drug incubation. The drug concentration resulting in total growth inhibition […]
(§11) (TGI) is calculated from Ti = Tz.

[3] = system: CNS cancer cell lines; assay: NCI 60 screen, sub-panel mean; assay type: cell-based, human; details: NCI-60, CNS sub-panel
Description: as §2, §3, §4, §5, §6, §7, §8, §9, §10, §11

[4] = system: NCI 60 cancer cell lines; assay: NCI 60 cell line screen, mean over panel; assay type: cell-based, human
Description: as §2, §3
The human tumor cell lines of the cancer screening panel are grown in RPMI 1640 mediu m containing 5% fetal bovine serum and 2 mM L-glutamine. […]
Following drug addition, the plates are incubated for an additional 48 h at 37°C, 5 % CO2, 95 % air, and 100 % relative humidity. […] Bound stain is subsequently solubilized with 10 mM trizma base, and the absorbance is read on an automated plate reader at a wavelength of 515 nm. […] Using the seven absorbance measurements [time zero, (Tz), control growth, (C), and test growth in the presence of drug at the five concentration levels (Ti)], the percentage growth is calculated at each of the drug concentrations levels. Percentage growth inhibition is calculated as: […]
Three dose response parameters are calculated for each experimental agent. […]
resulting in a 50% reduction in the net protein increase (as measured by SRB staining) in control cells during the drug incubation. […]
as §11

[5] = system: T-47D cells; assay: Cell cycle analysis by flow cytometry (propidium iodide); assay type: cell-based; details: 5 µM
Description: The distribution of cell cycle was determined by flow cytometric assay after using propidium iodide to stain the DNA content of the treated cells. […] Meanwhile, the cells of the G2-phase decreased to 6% compared to 8% in the untreated cells.
as §1, with “T-47D cells (10^5 cells) were treated with 12e (5 µM) and incubated for 48h.” left out

O=S(=O)(NCCNc1nccc(-n2cnc3ccccc32)n1)c1ccc(C(F)(F)F)cc1 [12e, N-(2-((4-(1H-benzo [d]imidazol-1-yl)pyrimidin-2-yl)amino)ethyl)-4-(trifluoromethyl)benzenesulfonamide]
IC50 [1]: 5.35 µM | mean percent inhibition [2]: 50% | mean percent inhibition [3]: 50% | mean percent inhibition over 60-cell line panel [4]: around 50% | cells in S-phase, treated cells ([5]; control 14%): 18% | cells in G1 phase, treated cells ([5]; control 29%): 31% | cells in G2-phase, treated cells ([5]; untreated 8%): 6%
